ChEMBL document CHEMBL1201862, “PubChem BioAssay data set” (2004)
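Values below derive from 48-hour exposures of cells grown in 96-well plates, with endpoints linearly interpolated between the two concentrations bracketing the appropriate inhibition level. At the GI50, growth is halved.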 Activity calls are given as the source filed them. Rule as the data show it: active = GI50 up to about 1.1 µM and inactive = higher.

What was measured:
Assay in all cases: DTP human tumour cell line panel, 48 h
RXF 393 = tested on: RXF 393
HT-29 = tested on: HT-29
M14 = tested on: M14
HOP-62 = tested on: HOP-62
UO-31 = tested on: UO-31
SW-620 = tested on: SW-620
HCC 2998 = tested on: HCC 2998
CAKI-1 = tested on: CAKI-1
MOLT-4 = tested on: MOLT-4
HCT-116 = tested on: HCT-116
U-251 = tested on: U-251
OVCAR-5 = tested on: OVCAR-5
OVCAR-4 = tested on: OVCAR-4
ACHN = tested on: ACHN
EKVX = tested on: EKVX

Measured: GI50

Clc1ccc(OCc2nnc3n2N=C(c2ccccc2)CS3)c(Cl)c1
inactive: RXF 393 26.4 µM | HT-29 5.74 µM | M14 > 10 µM | HOP-62 > 10 µM | UO-31 2.14 µM | SW-620 > 100 µM | HCC 2998 > 100 µM | CAKI-1 7.33 µM | MOLT-4 3.23 µM | HCT-116 2.67 µM | U-251 4.81 µM | OVCAR-5 5.78 µM | OVCAR-4 50.9 µM | ACHN 29 µM

N#CCC(=O)Nc1cccc(C(F)(F)F)c1
inactive: RXF 393 > 100 µM | HT-29 > 100 µM | M14 > 100 µM | HOP-62 > 100 µM | UO-31 > 100 µM | SW-620 > 100 µM | HCC 2998 > 100 µM | CAKI-1 > 100 µM | MOLT-4 > 100 µM | HCT-116 > 100 µM | EKVX > 100 µM | U-251 > 100 µM | OVCAR-5 > 100 µM | OVCAR-4 > 100 µM | ACHN > 100 µM

CC(=O)C1=NN(c2ccccc2)C2(S1)SC(c1ccccc1)(c1ccccc1)c1ccccc12 (stereo unspecified)
inactive: RXF 393 13.2 µM | HT-29 95.3 µM | M14 44.8 µM | HOP-62 34.6 µM | UO-31 > 100 µM | SW-620 99.1 µM | HCC 2998 > 100 µM | MOLT-4 27.8 µM | HCT-116 24.4 µM | EKVX > 100 µM | U-251 44.7 µM | OVCAR-4 24.2 µM | ACHN 42.3 µM

COC(=O)CC(NC(=O)OCc1ccccc1)C(C(=O)OCc1ccccc1)C(C)(OC)OC (stereo unspecified)
inactive: RXF 393 16.8 µM | HT-29 34.6 µM | M14 33.6 µM | HOP-62 44.9 µM | UO-31 14.6 µM | SW-620 32.9 µM | HCC 2998 38 µM | MOLT-4 5.94 µM | HCT-116 34.3 µM | EKVX 29.7 µM | U-251 27 µM | OVCAR-4 28.6 µM | ACHN 26.4 µM

CC(C)C1=CC(=O)C(C)(C2=NC(C)(C)CO2)c2ccccc21 (stereo unspecified)
inactive: RXF 393 > 100 µM | HT-29 > 100 µM | M14 > 100 µM | HOP-62 > 100 µM | UO-31 61.2 µM | SW-620 > 100 µM | CAKI-1 > 100 µM | MOLT-4 67.3 µM | HCT-116 > 100 µM | EKVX 96.6 µM | U-251 > 100 µM | OVCAR-4 > 100 µM | ACHN > 100 µM

CCCCCCCCCCCCCC(=O)NCO
inactive: RXF 393 > 100 µM | HT-29 > 100 µM | M14 > 100 µM | HOP-62 > 100 µM | UO-31 99.3 µM | SW-620 > 100 µM | HCC 2998 > 100 µM | HCT-116 > 100 µM | EKVX > 100 µM | U-251 > 100 µM | OVCAR-5 > 100 µM | OVCAR-4 > 100 µM | ACHN > 100 µM

CCCP1(=O)C=C(C)C(=C(Cl)Cl)C(C)=C1 (stereo unspecified)
inactive: RXF 393 25.9 µM | HT-29 43 µM | M14 33.7 µM | HOP-62 49.3 µM | UO-31 46.7 µM | SW-620 32.1 µM | HCC 2998 32.3 µM | MOLT-4 31 µM | HCT-116 41.2 µM | EKVX 83 µM | U-251 > 100 µM | OVCAR-5 > 100 µM | OVCAR-4 > 100 µM | ACHN 44.3 µM

CC/C=C\C/C=C\C1CC(=O)NCCCNCCCCN1 (stereo unspecified)
inactive: RXF 393 4.83 µM | HT-29 > 100 µM | M14 48 µM | HOP-62 > 100 µM | UO-31 > 100 µM | SW-620 > 100 µM | HCC 2998 > 100 µM | CAKI-1 > 100 µM | HCT-116 > 100 µM | EKVX > 100 µM | U-251 > 100 µM | OVCAR-5 > 100 µM | OVCAR-4 > 100 µM

O=[N+]([O-])c1cc(-c2nnc(S)[nH]2)ccc1O
inactive: RXF 393 > 100 µM | HT-29 > 100 µM | M14 > 100 µM | HOP-62 > 100 µM | UO-31 > 100 µM | SW-620 4.06 µM | HCC 2998 > 100 µM | CAKI-1 > 100 µM | HCT-116 > 100 µM | EKVX > 100 µM | U-251 > 100 µM | OVCAR-5 > 100 µM | OVCAR-4 > 100 µM | ACHN > 100 µM

O=C1C2=C(c3ccccc31)C(c1ccc([N+](=O)[O-])cc1)NC(S)=N2 (stereo unspecified)
inactive: HT-29 > 100 µM | M14 91.2 µM | HOP-62 > 100 µM | UO-31 31.8 µM | SW-620 81.1 µM | CAKI-1 > 100 µM | MOLT-4 35.4 µM | HCT-116 38.5 µM | EKVX > 100 µM | U-251 > 100 µM | OVCAR-5 > 100 µM | OVCAR-4 42.6 µM | ACHN 70 µM

O=CC[C@H]1C(=O)C[C@@H]2CCC[C@@H]21
inactive: RXF 393 29.6 µM | HT-29 94 µM | M14 68.2 µM | HOP-62 > 100 µM | SW-620 46.9 µM | HCC 2998 > 100 µM | CAKI-1 > 100 µM | MOLT-4 43.4 µM | HCT-116 37.2 µM | EKVX > 100 µM | U-251 98.6 µM | OVCAR-5 > 100 µM | OVCAR-4 > 100 µM | ACHN > 100 µM

Cc1nnc2c3nnc(C)n3c3ccccc3n12
inactive: RXF 393 > 100 µM | HT-29 > 100 µM | M14 > 100 µM | HOP-62 > 100 µM | UO-31 > 100 µM | SW-620 > 100 µM | HCC 2998 > 100 µM | CAKI-1 > 100 µM | MOLT-4 > 100 µM | HCT-116 > 100 µM | EKVX > 100 µM | U-251 > 100 µM | OVCAR-5 > 100 µM | OVCAR-4 > 100 µM | ACHN > 100 µM

COc1c(C)n(CCO)ccc1=O
inactive: RXF 393 > 100 µM | HT-29 > 100 µM | M14 > 100 µM | HOP-62 > 100 µM | UO-31 > 100 µM | SW-620 > 100 µM | CAKI-1 > 100 µM | MOLT-4 > 100 µM | HCT-116 > 100 µM | EKVX > 100 µM | U-251 > 100 µM | OVCAR-5 > 100 µM | OVCAR-4 > 100 µM | ACHN > 100 µM

COc1ccc(N2C(=O)C3c4[nH]c5ccccc5c4C4CC(C)(C)CC(C)(C)C4C3C2=O)cc1 (stereo unspecified)
inactive: RXF 393 12.8 µM | HT-29 26 µM | M14 14.3 µM | HOP-62 16.7 µM | UO-31 26 µM | SW-620 20 µM | HCC 2998 33.6 µM | MOLT-4 14.4 µM | HCT-116 13.5 µM | EKVX 15.9 µM | U-251 16.8 µM | OVCAR-4 10.2 µM | ACHN 14.9 µM

c1cnc2c(c1)-n1cccc1C1(CCSCC1)NN2
inactive: HT-29 > 100 µM | M14 > 100 µM | HOP-62 > 100 µM | UO-31 32.4 µM | SW-620 > 100 µM | HCC 2998 > 100 µM | CAKI-1 88.5 µM | MOLT-4 50.2 µM | HCT-116 > 100 µM | EKVX > 100 µM | OVCAR-5 > 100 µM | OVCAR-4 > 100 µM | ACHN > 100 µM

CC(=O)Nc1ccc(S(=O)(=O)N/N=C(\C)CN2C(=O)c3ccccc3C2=O)cc1
inactive: HT-29 > 100 µM | M14 > 100 µM | HOP-62 > 100 µM | UO-31 > 100 µM | SW-620 > 100 µM | HCC 2998 > 100 µM | CAKI-1 > 100 µM | MOLT-4 > 100 µM | HCT-116 > 100 µM | EKVX > 100 µM | U-251 > 100 µM | OVCAR-5 > 100 µM | OVCAR-4 > 100 µM | ACHN > 100 µM

O=C1/C(=C/c2ccc(Cl)cc2)COc2ccc(Br)cc21
inactive: RXF 393 50.5 µM | HT-29 > 100 µM | HOP-62 > 100 µM | UO-31 80.4 µM | SW-620 > 100 µM | HCC 2998 > 100 µM | MOLT-4 > 100 µM | HCT-116 > 100 µM | EKVX > 100 µM | U-251 > 100 µM | OVCAR-5 > 100 µM | ACHN > 100 µM

CCOC(=O)COc1ccc(OCC(=O)OCC)c2c1C(=O)CCCC2=O
inactive: RXF 393 > 100 µM | HT-29 > 100 µM | M14 > 100 µM | HOP-62 > 100 µM | UO-31 > 100 µM | SW-620 > 100 µM | HCC 2998 > 100 µM | MOLT-4 > 100 µM | HCT-116 > 100 µM | EKVX > 100 µM | U-251 > 100 µM | OVCAR-5 > 100 µM | ACHN > 100 µM

COc1ccc2nc(-c3cccs3)cc(C(O)CN3CCSCC3)c2c1 (stereo unspecified)
inactive: RXF 393 45 µM | HT-29 25 µM | M14 18.1 µM | HOP-62 24.2 µM | UO-31 18.7 µM | SW-620 30.7 µM | HCC 2998 19.7 µM | CAKI-1 17.3 µM | MOLT-4 12.2 µM | EKVX 29 µM | U-251 19.2 µM | OVCAR-5 19.2 µM | OVCAR-4 8.3 µM | ACHN 13.5 µM

Cc1ccc(NC(=O)CC/C(CC(=O)c2ccc(F)cc2)=N\NC(=O)C(=O)NN)cc1C
inactive: RXF 393 > 100 µM | HT-29 > 100 µM | M14 > 100 µM | HOP-62 > 100 µM | UO-31 > 100 µM | SW-620 > 100 µM | HCC 2998 > 100 µM | CAKI-1 > 100 µM | HCT-116 > 100 µM | EKVX > 100 µM | U-251 > 100 µM | OVCAR-5 > 100 µM | OVCAR-4 > 100 µM | ACHN > 100 µM
